Source: publication PMC3717983 (Journal of medicinal chemistry, 2013)
Several values for one entry are separate records, joined by “and”; a condition that tells them apart may be missing. Equal entries are not always repeated. Marks after values point to notes of the source that are not given here.

Columns and labels:
thrombin = thrombin (Homo sapiens, UniProt P00734); experiment: Sequential inhibition of thrombin by 9a and PPACK; assay type: biochemical; conditions: PPACK added following inhibition by 9a (Figure S10)
Water solubility = assay type: physicochemical; conditions: devoid of any sulfate group
human α-thrombin = human α-thrombin (Homo sapiens, UniProt P00734); assay type: biochemical; conditions: for HS (Hill slope) / logIC50: pH 7.4, 25 °C, Spectrozyme TH; for fold decrease in potency from 9a: ratio of IC50s

water solubility (Water solubility)	HS (Hill slope) (human α-thrombin)	logIC50 (human α-thrombin)	fold decrease in potency from 9a (human α-thrombin)	fold reduction in potency from 13 (human α-thrombin; allyl ester to carboxylic acid)	Structure (SMILES)	thrombin activity after sequential inhibition (thrombin)
					N=C(N)NCCC[C@H](NC(=O)[C@@H]1CCCN1C(=O)[C@H](N)Cc1ccccc1)C(=O)CCl [PPACK, D-Phe-Pro-Arg-chloromethylketone]	totally inactive
fairly good water solubility					CCOC(=O)c1c(COc2cc3c(C(=O)OCC)c(COc4cc5c(C(=O)O)c(C)oc5cc4OC)oc3cc2OC)oc2cc(OC)c(O)cc12 [compound 12]	
	3.5 ± 1.2	−4.51 ± 0.06	46 fold		C=CCOC(=O)c1c(C)oc2cc(OC)c(OCc3oc4cc(OC)c(OCc5oc6cc(OC)c(OS(=O)(=O)[O-])cc6c5C(=O)OCC)cc4c3C(=O)OCC)cc12.[Na+] [compound 13]	
	1.0 ^c	−4.18 ± 0.17		2 fold	CCOC(=O)c1c(COc2cc3c(C(=O)O)c(C)oc3cc2OC)oc2cc(OC)c(OCc3oc4cc(OC)c(OS(=O)(=O)[O-])cc4c3C(=O)OCC)cc12.[Na+] [compound 14]	
	1.0 ^c	−3.80 ± 0.15	~236 fold and 225 fold		CCOC(=O)c1c(C)oc2cc(OC)c(OCc3oc4cc(OC)c(OCc5oc6cc(OC)c(OCc7oc8cc(OC)c(OS(=O)(=O)[O-])cc8c7C(=O)OCC)cc6c5C(=O)OCC)cc4c3C(=O)OCC)cc12.[Na+] [compound 17]	
	1.2 ± 0.3	−3.81 ± 0.13			CCOC(=O)c1c(C)oc2cc(OC)c(OCc3oc4cc(OC)c(OCc5oc6cc(OS(=O)(=O)[O-])c(OC)cc6c5C(=O)OCC)cc4c3C(=O)OCC)cc12.[Na+] [compound 23]	
